Assay results taken from patent US20260207626A1, “SYNTHETIC TRITERPENOIDS AND COMPOSITIONS THEREOF IN WEIGHT MANAGEMENT, SKELETAL MUSCLE FUNCTION, AND APPETITE SUPPRESSION” (The Board of Regents of the University of Texas System, priority 2022, published 2026).
“Also recorded” adds a separate entry of the source.

How the values were obtained:
NF-κB p65 (Ser536) = test: Western blot of LPS-induced NF-κB phosphorylation in L6-GLUT4myc myotubes; format: cell-based, rat; conditions: 500 nM CDDO-EA 1 hr then 100 ng/ml LPS 1 hr
Description: To examine the anti-inflammatory properties of CDDO-EA in skeletal muscle cells, CDDO-EA was examined for its effect on nuclear factor-kappa B (NF-κB) activity in L6-GLUT4myc muscle cells, in the context of LPS-mediated inflammatory responses in L6-GLUT4myc muscle cells. All experiments were independently repeated one to four times and done in duplicate or triplicate, and data were statistically analyzed by One-Way ANOVA or unpaired t-test, two tailed.
Cells were studied with vehicle alone [0.125% dimethyl sulfoxide (DMSO)] and LPS with and without CDDO-EA. […]
(§1) Western blotting and subcellular fractionation: L6-GLUT4myc myoblasts (4×10^4 cells/ml, 2 ml/well) were seeded onto 6-well dishes and differentiated with differentiation medium for 7 days. […] Protein concentrations were determined using the Pierce BCA Protein Assay (Thermo Fisher Scientific), and equal amounts of protein were separated by electrophoresis and subsequently transferred to nitrocellulose membranes. Membranes were analyzed using the following antibodies from Cell Signaling Technology: phosphorylated NF-κB (Ser536) (93 H1, cat #3033,1:1000), phosphorylated IKB-α (Ser32) (14D4, cat #2859,1:1000), IKB-α (44D4, cat #4812, 1:1000), phosphorylated p38 (Thr180/Tyr182) (cat #9211, 1:1000), p38 (cat #9212, 1:1000). […] Bands were quantitated using ImageQuant (GE Healthcare). […]

TNF-α = test: Quantitative RT-PCR of LPS-induced TNF-α mRNA in L6-GLUT4myc myotubes; format: cell-based, rat; conditions: 500 nM CDDO-EA 1 hr then 100 ng/ml LPS 1 hr
Procedure: Quantitative RT-PCR: L6-GLUT4myc myoblasts (4×10^4 cell/ml, 2 ml/well) were seeded on a 6-well plate and differentiated into myo-tubes with differentiation medium for 7 days. Myotubes were pre-treated with CDDO-EA 500 nM for 1 h followed by LPS 100 ng/ml (E. coli O111: B4, Sigma Aldrich) treatment for 1 h. RNA was isolated from treated myotubes using TRIzol reagent (Ambion) according to the manufacturer's instructions. Validated RT-PCR primers specific for rat TNF-α (Assay ID: Rn99999017_m1) and rat MCP-1 (Assay ID: Rn00580555_m1), or rat GAPDH (Assay ID: Rn99999916_s1) were used to quantify mRNA levels using TaqMan RNA-to-CT 1-Step Kit (Thermo Fisher Scientific), Real-time PCR was carried out using an AB7900HT Fast Real-Time PCR System (Applied Biosystems), and MCP-1 and TNF-α levels were calculated using the ΔΔCT method according to the manufacturer's instructions.

p38 = test: Western blot of p38 phosphorylation in L6-GLUT4myc myotubes; format: cell-based, rat; conditions: CDDO-EA treated myotubes vs control
Procedure: FIG. 16B. The protein p38 has been reported to be involved in insulin-independent glucose metabolism. FIG. 16B represents results from a study performed to illustrate that CDDO-EA activated phosphorylation of p38. Immunoblotting was performed to measure the protein content of phosphorylated p38 and total p38 protein. Protein content of actin is used as a control to confirm protein loading is the same across the lanes of the immunoblot. […] The first row of horizontal bands is the Control group (bands #1, #2, and #3) content of phosphorylated p38 (P-p38) with no CDDO-EA treatment.
as §1

[1] = Body composition by NMR at 42 days; format: in vivo, C57BL/6J mice; conditions: all groups
Procedure: FIG. 24—Body composition at 42 days. Body composition was measured by NMR. C57BL/6J mice were fed a HFD with or without incorporation of CDDO-EA (diet containing 0.04% CDDO-EA) or LFD or HFD pair-fed for 6 weeks (n=5). BW=body weight. Data are represented as mean±SEM (Two-way Repeated Measures ANOVA).
C57BL/6J mice (6-8 weeks old, male, strain #000664, The Jackson Laboratory) were divided into four (4) groups (i)-(iv)): (i) ad libitum Low fat caloric content (LFD-10% of total calories from fat caloric content, #TD.08806, Envigo), (ii) ad libitum HFD (60% of total calories from fat caloric content, #TD.06414, Envigo), (iii) HFD+CDDO-EA (diet containing 0.04% CDDO-EA), and (iv) HFD pair-fed to food intake of mice fed HFD+CDDO-EA. The study was for 6 weeks (42 days) (performed at Vanderbilt Metabolic Mouse Phenotyping Center (VMMPC)). Mice were singly housed in a Promethion Metabolic Analyzer and were monitored continuously for 7 days to assess feeding and EE.

NFκB = test: Western blot of palmitate (PA)-induced NFκB phosphorylation in L6-GLUT4myc myotubes; format: cell-based, rat; conditions: CDDO-EA 500 nM 1 h then PA 400 μM 6 h
Procedure: L6-GLUT4myc myotubes were pretreated with CDDO-EA (500 nM, 1 h) and then treated with PA (400 μM, 6 h). NFκB phosphorylation and protein were measured by Western blotting. Data are represented as ±SEM. * P<0.05 vs. control; ^#P<0.05 vs. […]. (One-Way ANOVA).

N171-82Q mice = conditions: cited from earlier work

For `CCNC(=O)[C@]12CCC(C)(C)C[C@H]1C1C(=O)C=C3[C@@]4(C)C=C(C#N)C(=O)C(C)(C)[C@@H]4CC[C@@]3(C)[C@]1(C)CC2` (stereo partly drawn) [CDDO-EA, (4aS,6aR,6bS,8aR,12aS,14bS)-11-cyano-N-ethyl-2,2,6a,6b,9,9,12a-heptamethyl-10,14-dioxo-1,3,4,5,6,6a,6b, 7,8,8a,9,10,12a, 14,14a, 14b-hexadecahydropicene-4a (2H)-carboxamide], which “LPS-induced NF-κB phosphorylation” value (NF-κB p65 (Ser536)) is on record?
The value was “decreased LPS-induced NF-κB and nuclear factor of kappa light polypeptide gene enhancer in B-cells inhibitor-alpha (IκB) phosphorylation; also recorded: inhibited LPS-induced NF-κB phosphorylation; also recorded: inhibits lipopolysaccharide (LPS)-induced NF-κB and Inhibitory kappa B alpha (IκB-α) phosphorylation”.

And the “LPS-induced TNF-α mRNA expression” value (TNF-α)?
The value was “lowered LPS-induced mRNA levels of TNF-α and MCP-1; also recorded: blocked the mRNA expression of LPS-induced TNF-α and MCP-1; also recorded: reduced LPS-induced TNF-α and MCP-1 gene expression levels; also recorded: inhibits LPS-inducted TNF-α and MCP-1 gene expression”.

And the “p38 phosphorylation (normalized to total p38, percent over control)” value (p38)?
Its value is “effective for inducing p38 phosphorylation; also recorded: two-fold increase in activation of p38 phosphorylation; also recorded: activates GLUT4 translocation to cell membrane and p38 phosphorylation”.

And the “total p38 protein expression” value (p38)?
The value was “had no effect on p38 protein expression”.

And the lean mass [1]?
The lean mass was “no difference in lean mass between the groups”.

What about the “PA-induced NFκB phosphorylation” value (NFκB) of the same molecule?
Its value is “inhibits PA-induced NF-κB activation; also recorded: inhibits PA-induced NFκB phosphorylation”.

What about the “muscle strength and balance, survival” value (N171-82Q mice; N171-82Q mice) of the same molecule?
Its value is “improved muscle strength and balance and increased survival”.

What about the “accumulation in the skeletal muscle” value (N171-82Q mice; Stack et al. (2010)) of the same molecule?
Its value is “accumulated in the skeletal muscle”.

What about the “oxidative stress in skeletal muscle” value (N171-82Q mice; Stack et al. (2010)) of the same molecule?
The value was “oxidative stress in skeletal muscle was reduced”.
